In patent US8354422B2, “Pyrimidine inhibitors of kinase activity” (Abbott Laboratories Inc., priority 2009, dated 2013):

Biological target: T1, C-terminal GST-tagged, recombinant, human IGF-1R, amino acids 954-1367 (Homo sapiens, UniProt P08069)
T1 construct: human IGF-1R, amino acids 954-1367 expressed by baculovirus in Sf21 cells; GST (C); purchased Cell Signaling Technology; host or cells: baculovirus in Sf21 cells
Experiment: IGF-1R kinase activity, homogenous time-resolved fluorescence (HTRF) in vitro kinase assay
Type: biochemical
Settings: IGF-1R kinase HTRF assay, ATP 50 μM, biotinylated peptide substrate 0.5 μM, 60 minutes at room temperature
Protocol: IGF-1R kinase activity was assayed by a homogenous time-resolved fluorescence (HTRF) in vitro kinase assay (Mathis, G., HTRF(R) Technology. J Biomol Screen, 1999. 4(6): p. 309-314). Specifically, 10 μL C-terminal GST-tagged, recombinant, human IGF-1R, amino acids 954-1367 expressed by baculovirus in Sf21 cells (Cell Singaling Technology) was mixed with 10 μL inhibitor (various concentrations, 2% final DMSO) and 10 μL of ATP (50 μM final concentration) in reaction buffer (50 mM HEPES, pH […], 2 mM MnCl2, 0.1% BSA and 1 mM DTT, 40 μL final volume). The reaction was initiated by addition of 10 μL of biotinylated peptide substrate (Biotin-Ahx-[…], 0.5 μM final concentration) in a black 384-well plate (Packard). After 60 minutes incubation at room temperature, the reaction was quenched by addition of 60 μL stop/revelation buffer to give 30 mM EDTA, 1 μg/mL streptavidin-APC (Prozyme), 50 ng/mL anti-phosphotyrosine mAb PT66-K Europium Cryptate, 30 mM HEPES, pH 7.5, 120 mM KF, 0.005% Tween-20, 0.05% BSA). The quenched reaction was allowed to stand at room temperature for 1 hour and then read in a time-resolved fluorescence detector (Envision, Perkin Elmer) at 615 nm and 665 nm simultaneously. The ratio between the signal of 615 nm and 665 nm was used in the calculation of the IC50.

T1 sequence (P08069 954-1367): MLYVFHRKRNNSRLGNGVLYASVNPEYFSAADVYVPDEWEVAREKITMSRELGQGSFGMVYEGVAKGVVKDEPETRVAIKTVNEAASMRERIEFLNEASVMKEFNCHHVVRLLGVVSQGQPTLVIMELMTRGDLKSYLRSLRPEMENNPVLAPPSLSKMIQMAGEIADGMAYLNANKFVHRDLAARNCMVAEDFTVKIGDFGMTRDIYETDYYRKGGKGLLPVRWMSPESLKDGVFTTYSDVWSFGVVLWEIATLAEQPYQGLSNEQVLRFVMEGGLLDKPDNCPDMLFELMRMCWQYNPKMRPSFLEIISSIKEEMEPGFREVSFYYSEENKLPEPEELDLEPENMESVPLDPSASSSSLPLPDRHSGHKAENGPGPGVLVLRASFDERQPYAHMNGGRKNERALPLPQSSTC

Row | Compound | IC50
1 | COc1cc(-c2nc3ccccn3c2-c2ccnc(Nc3cccc(OCCN4CCCC4)c3)n2)ccc1OCc1ccccc1 [Example 30, 4-{2-[4-(benzyloxy)-3-methoxyphenyl]imidazo[1,2-a]pyridin-3-yl}-N-[3-(2-pyrrolidin-1-ylethoxy)phenyl]pyrimidin-2-amine] | < 25 nM
2 | CCN(CCO)c1cccc(Nc2nccc(-c3c(-c4ccc(OCc5ccccc5)c(OC)c4)nc4ccccn34)n2)c1 [Example 31, 2-[{3-[(4-{2-[4-(benzyloxy)-3-methoxyphenyl]imidazo[1,2-a]pyridin-3-yl}pyrimidin-2-yl)amino]phenyl}(ethyl)amino]ethanol] | 101 to 500 nM
3 | COc1cc(N2CCC(N(C)C)CC2)ccc1Nc1nccc(-c2c(-c3ccc(OCc4ccccc4)c(OC)c3)nc3ccccn23)n1 [Example 33, 4-{2-[4-(benzyloxy)-3-methoxyphenyl]imidazo[1,2-a]pyridin-3-yl}-N-{4-[4-(dimethylamino)piperidin-1-yl]-2-methoxyphenyl}pyrimidin-2-amine] | 25 to 100 nM
4 | COc1ccc(S(C)(=O)=O)cc1Nc1nccc(-c2c(-c3ccc(OCc4ccccc4)c(OC)c3)nc3ccccn23)n1 [Example 34, 4-{2-[4-(benzyloxy)-3-methoxyphenyl]imidazo[1,2-a]pyridin-3-yl}-N-[2-methoxy-5-(methylsulfonyl)phenyl]pyrimidin-2-amine] | 25 to 100 nM
5 | COc1ccc(S(C)(=O)=O)cc1Nc1nccc(-c2c(-c3ccc(OCc4ccccc4)cc3)nc3ccccn23)n1 [Example 35, 4-{2-[4-(benzyloxy)phenyl]imidazo[1,2-a]pyridin-3-yl}-N-[2-methoxy-5-(methylsulfonyl)phenyl]pyrimidin-2-amine] | 101 to 500 nM
6 | COc1cc(N2CCOCC2)ccc1Nc1nccc(-c2c(-c3ccc(OCc4ccccc4)c(OC)c3)nc3ccccn23)n1 [Example 39, 4-{2-[4-(benzyloxy)-3-methoxyphenyl]imidazo[1,2-a]pyridin-3-yl}-N-(2-methoxy-4-morpholin-4-ylphenyl)pyrimidin-2-amine] | 101 to 500 nM
7 | COc1ccc(C(F)(F)F)cc1Nc1nccc(-c2c(-c3ccc(OCc4ccccc4)cc3)nc3ccccn23)n1 [Example 41, 4-{2-[4-(benzyloxy)phenyl]imidazo[1,2-a]pyridin-3-yl}-N-[2-methoxy-5-(trifluoromethyl)phenyl]pyrimidin-2-amine] | > 1000 nM
8 | COc1cc(N(C)C)ccc1Nc1nccc(-c2c(-c3ccc(OCc4ccccc4)c(OC)c3)nc3ccccn23)n1 [Example 42, N^1-(4-{2-[4-(benzyloxy)-3-methoxyphenyl]imidazo[1,2-a]pyridin-3-yl}pyrimidin-2-yl)-2-methoxy-N^4,N^4-dimethylbenzene-1,4-diamine] | 101 to 500 nM
9 | COc1cc(-c2nc3ccccn3c2-c2ccnc(Nc3cnn(CCN(C)C)c3)n2)ccc1OCc1ccccc1 [Example 43, 4-{2-[4-(benzyloxy)-3-methoxyphenyl]imidazo[1,2-a]pyridin-3-yl}-N-{1-[2-(dimethylamino)ethyl]-1H-pyrazol-4-yl}pyrimidin-2-amine] | 101 to 500 nM
10 | COc1cc(NCC(C)(C)O)ccc1Nc1nccc(-c2c(-c3ccc(OCc4ccccc4)c(OC)c3)nc3ccccn23)n1 [Example 45, 1-({4-[(4-{2-[4-(benzyloxy)-3-methoxyphenyl]imidazo[1,2-a]pyridin-3-yl}pyrimidin-2-yl)amino]-3-methoxyphenyl}amino)-2-methylpropan-2-ol] | 101 to 500 nM
11 | COc1cc(N)ccc1Nc1nccc(-c2c(-c3ccc(OCc4ccccc4)c(OC)c3)nc3ccccn23)n1 [Example 46, N^1-(4-{2-[4-(benzyloxy)-3-methoxyphenyl]imidazo[1,2-a]pyridin-3-yl}pyrimidin-2-yl)-2-methoxybenzene-1,4-diamine] | 25 to 100 nM
12 | COc1cc(N(C)CCO)ccc1Nc1nccc(-c2c(-c3ccc(OCc4ccccc4)c(OC)c3)nc3ccccn23)n1 [Example 48, 2-[{4-[(4-{2-[4-(benzyloxy)-3-methoxyphenyl]imidazo[1,2-a]pyridin-3-yl}pyrimidin-2-yl)amino]-3-methoxyphenyl}(methyl)amino]ethanol] | 101 to 500 nM
13 | CCc1cc(-c2nc3ccccn3c2-c2ccnc(Nc3cccc(CCN(C)C)c3)n2)ccc1OCc1ccccc1 [Example 50, 4-{2-[4-(benzyloxy)-3-ethylphenyl]imidazo[1,2-a]pyridin-3-yl}-N-{3-[2-(dimethylamino)ethyl]phenyl}pyrimidin-2-amine] | > 1000 nM
14 | COc1cc(N2CCSCC2)ccc1Nc1nccc(-c2c(-c3ccc(OCc4ccccc4)c(OC)c3)nc3ccccn23)n1 [Example 51, 4-{2-[4-(benzyloxy)-3-methoxyphenyl]imidazo[1,2-a]pyridin-3-yl}-N-(2-methoxy-4-thiomorpholin-4-ylphenyl)pyrimidin-2-amine] | 501 to 1000 nM

Results, then the compound that gave them:

Row | IC50 | Compound
15 | 101 to 500 nM | COc1cc(-c2nc3ccccn3c2-c2ccnc(Nc3ccc(N4CCS(=O)(=O)CC4)cc3)n2)ccc1OCc1ccccc1 [Example 32, 4-{2-[4-(benzyloxy)-3-methoxyphenyl]imidazo[1,2-a]pyridin-3-yl}-N-[4-(1,1-dioxidothiomorpholin-4-yl)phenyl]pyrimidin-2-amine]
16 | < 25 nM | COc1cc(-c2nc3ccccn3c2-c2ccnc(Nc3ccc(N4CCC(N(C)C)CC4)cc3)n2)ccc1OCc1ccccc1 [Example 36, 4-{2-[4-(benzyloxy)-3-methoxyphenyl]imidazo[1,2-a]pyridin-3-yl}-N-{4-[4-(dimethylamino)piperidin-1-yl]phenyl}pyrimidin-2-amine]
17 | 101 to 500 nM | COc1cc(-c2nc3ccccn3c2-c2ccnc(Nc3cnn(CCN4CCCC4)c3)n2)ccc1OCc1ccccc1 [Example 37, 4-{2-[4-(benzyloxy)-3-methoxyphenyl]imidazo[1,2-a]pyridin-3-yl}-N-[1-(2-pyrrolidin-1-ylethyl)-1H-pyrazol-4-yl]pyrimidin-2-amine]
18 | 25 to 100 nM | COc1cc(-c2nc3ccccn3c2-c2ccnc(Nc3cccc(CCN(C)CCO)c3)n2)ccc1OCc1ccccc1 [Example 38, 2-[(2-{3-[(4-{2-[4-(benzyloxy)-3-methoxyphenyl]imidazo[1,2-a]pyridin-3-yl}pyrimidin-2-yl)amino]phenyl}ethyl)(methyl)amino]ethanol]
19 | > 1000 nM | COc1ccc(C(F)(F)F)cc1Nc1nccc(-c2c(-c3ccc(OCc4ccccc4)c(OC)c3)nc3ccccn23)n1 [Example 40, 4-{2-[4-(benzyloxy)-3-methoxyphenyl]imidazo[1,2-a]pyridin-3-yl}-N-[2-methoxy-5-(trifluoromethyl)phenyl]pyrimidin-2-amine]
20 | 25 to 100 nM | COc1cc(-c2nc3ccccn3c2-c2ccnc(Nc3ccc(N4CCN(CCO)CC4)cc3)n2)ccc1OCc1ccccc1 [Example 44, 2-(4-{4-[(4-{2-[4-(benzyloxy)-3-methoxyphenyl]imidazo[1,2-a]pyridin-3-yl}pyrimidin-2-yl)amino]phenyl}piperazin-1-yl)ethanol]
21 | 25 to 100 nM | COc1cc(-c2nc3ccccn3c2-c2ccnc(Nc3cnn(CCO)c3)n2)ccc1OCc1ccccc1 [Example 47, 2-{4-[(4-{2-[4-(benzyloxy)-3-methoxyphenyl]imidazo[1,2-a]pyridin-3-yl}pyrimidin-2-yl)amino]-1H-pyrazol-1-yl}ethanol]
22 | > 1000 nM | CN(C)CCc1cccc(Nc2nccc(-c3c(-c4ccc(OCc5ccccc5)c(C(F)(F)F)c4)nc4ccccn34)n2)c1 [Example 49, 4-{2-[4-(benzyloxy)-3-(trifluoromethyl)phenyl]imidazo[1,2-a]pyridin-3-yl}-N-{3-[2-(dimethylamino)ethyl]phenyl}pyrimidin-2-amine]
